Source: PubChem BioAssay (NCI)
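Cultured in 96-well plates, cells were exposed to test compound for 48 hours across five concentrations. The concentration for full growth arrest is given as TGI.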

Legend:
Assay in all cases: NCI tumour cell line growth inhibition, 48 h
[1] = test system: M19-MEL melanoma
[2] = test system: DMS 114 small cell lung
[3] = test system: HOP-18 NSCLC
[4] = test system: RXF-631 renal
[5] = test system: DMS 273 small cell lung
[6] = test system: XF 498 CNS
[7] = test system: DLD-1 colon
[8] = test system: KM20L2 colon
[9] = test system: SNB-78 CNS

Structure (SMILES) | TGI [1] [µM] | TGI [2] [µM] | TGI [3] [µM] | TGI [4] [µM] | TGI [5] [µM] | TGI [6] [µM] | TGI [7] [µM] | TGI [8] [µM] | TGI [9] [µM]
COC(=O)C(=O)C(C(=O)OC)C(=O)C(=O)Nc1cc(Cl)c(Cl)cc1Cl (centres undefined) | > 100 | 30.8 | > 100 | > 100 | > 100 | > 100 | > 100 | > 100 | –
Cn1nc2ccccc2cc1=O | > 100 | > 100 | > 100 | > 100 | > 100 | > 100 | > 100 | > 100 | > 100
CC(C)C1COC(c2ccc3ccccc3c2-c2c(O[Si](C)(C)C(C)(C)C)ccc3ccccc23)=N1 (centres undefined) | 33.7 | 30.9 | – | 61.3 | 42.8 | 28.9 | 31.4 | 37.2 | 21.4
CCOC(=O)Nn1c(C)cc(C(=O)OC)c1C | > 100 | > 100 | – | – | > 100 | > 100 | > 100 | > 100 | > 100
COc1ccc2c(c1)OC(c1ccccc1O)CC2=O (centres undefined) | – | – | > 100 | – | – | > 100 | > 100 | > 100 | 84.8
C#Cc1cc(CN(CC(=O)OC(C)(C)C)CC(=O)OC(C)(C)C)nc(CN(CC(=O)OC(C)(C)C)CC(=O)OC(C)(C)C)c1 | 83.2 | 11.5 | – | 38.7 | 28.6 | 36.6 | – | 69.7 | 70.4
O=C1NC2C(CCO)CC=C[C@H]2c2cc3c(cc21)OCO3 (some centres undefined) | > 100 | > 100 | – | – | > 100 | – | > 100 | > 100 | > 100
O=C(N/N=C(\c1nc2ccc(Cl)cc2[nH]c1=O)C(O)c1ccccc1Cl)c1ccncc1 (centres undefined) | > 100 | > 100 | > 100 | > 100 | > 100 | – | > 100 | > 100 | –
CN1N=C2c3ccccc3CC[C@H]2C1c1cccc(O)c1 (some centres undefined) | > 100 | > 100 | – | – | > 100 | > 100 | > 100 | > 100 | –
CCCc1c(C(=O)OCC)[nH]c(C(=O)CCC(=O)c2[nH]c(C(=O)OCC)c(CCC)c2C(=O)OCC)c1C(=O)OCC | > 100 | > 100 | > 100 | – | > 100 | > 100 | > 100 | > 100 | > 100
COC1=CC(=O)C2C(C1=O)C(c1ccc(OC)c(OC)c1)[C@H]2C (some centres undefined) | 42.1 | 42.3 | 35.1 | 32.7 | 60.3 | 29.9 | 31.5 | > 100 | > 100
CCN(CC)CCCNc1ncc(C)c2c1c1ccc3c(O)cccc3c1n2C | – | 2.68 | 16.3 | – | 2.14 | 29.5 | 3.85 | 10.5 | > 61
CC(C)(C)C(=O)/C=C/c1cccc(Oc2ccccc2)c1 | 54.2 | – | 30.2 | > 100 | – | 32.9 | 28.5 | 28.2 | 48.1
COC(=O)N/N=C(/Cc1occc(=O)c1O)C(=O)Nc1ccc([N+](=O)[O-])cc1[N+](=O)[O-] | > 100 | > 100 | > 100 | – | > 100 | > 100 | > 100 | > 100 | > 100
C/C(=N/NC(N)=S)C(CN(C)C)C(C1=C(O)c2ccccc2OC1)c1ccccc1 (centres undefined) | > 100 | > 100 | > 100 | – | > 100 | > 100 | > 100 | > 100 | > 100
COc1ccc(C2S/C(=C\c3ccccc3)C(=O)N2NC(=O)Cc2ccccc2)cc1 (centres undefined) | > 100 | – | > 100 | – | > 100 | – | > 100 | – | –
